Measured values reported in US11273172B2, “Synergistic combination of oligonucleotides and chemotherapeutic for treating cancer” (THE BOARD OF TRUSTEES OF THE UNIVERSITY OF ILLINOIS, priority 2017, dated 2022).
Where “and” joins values, the source holds several entries; their conditions need not be identical. Equal entries are not always repeated.

Assays:
Assay in all cases: MTT cell death assay, chemotherapeutic with and without MADD siRNA knockdown
Format in all cases: cell-based
Details in all cases: siRNA 10 nM
H522 lung cancer cells = test system: H522 lung cancer cells
Procedure: (§1) Cells are cultured and maintained at 37° C. in a humidified atmosphere containing 5% CO2 as described above. On Day 0, Cells are seeded in […] tissue culture dishes (Corning; Cat Number: 353003) to attain 60-70% confluence. In parallel, cells are also seeded in one 96-well plate (Corning; Cat number: 353072) for analysis of survival before reseeding. After 12-18 hours (Day 1), cells are transfected with Scramble or MADD siRNA at 10 nM concentration. The sequences of siRNAs (double-stranded) used are:
(§2) On Day 4, when cells are properly adhered and retained their shape in 96-well plates, drugs are added. All drugs are diluted in complete media on the same day prior to the addition to the cells. In untreated cells, media is replaced with complete media. Two hundred μl volume of media (with or without drugs) is used for the drug treatment assay. Plates are incubated 24 hours, 48 hours and 72 hours at 37° C. in humidified CO2 incubator.
(§3) An MTT assay is performed to determine relative survival after drug treatment as described above. MTT (3-[4,5-Dimethylthiazol-2-yl]-2,5-diphenyltetrazolium bromide; Thiazolyl blue) is purchased from Sigma Aldrich (Cat number: M5655). MTT is dissolved in sterile DPBS at the concentration of 5 mg/ml and filtered through 0.45 μM syringe filter (Corning; Cat number: 431220). Ten μl of MTT solution is added per well of 96-well plate. Plates are incubated for 2 hours at 37° C. in the humidified CO2 incubator. After 2 hours, media is aspirated using vacuum inside the biosafety hood. Purple colored crystals formed in viable cells are dissolved by adding 100 μl of Dimethyl sulfoxide (Thermo Fisher Scientific; Cat number D128-500) Plates are kept on shaker for 10 minutes for compete dissolution of crystals and absorbance is recorded at 595 nm using Bio-Rad iMark microplate reader. Data is analyzed in MICROSOFT EXCEL® software. Relative survival is calculated with respect to absorbance of control (untreated cells) to determine the effect of transfection as well as combination treatment.
(§4) Each data set takes into account any spontaneous cell death which is observed upon transfection with Scramble siRNA; the amount of spontaneous cell death from Scramble siRNA transfection (baseline) is subtracted from the amount of cell death observed in each siRNA transfection reaction to yield a Net Percent (Net %) cell death after accounting for Scrambled siRNA-induced cell death.
(§5) Cells are cultured and maintained at 37° C. in a humidified atmosphere containing 5% CO2 as described above. On Day 0, Cells are seeded in […] tissue culture dishes (Corning; Cat Number: 353003) to attain 60-70% confluence. In parallel, cells are also seeded in one 96-well plate (Corning; Cat number: 353072) for analysis of survival before reseeding. After 12-18 hours (Day 1), cells are transfected with Scramble or MADD siRNA at 10 nM concentration. The sequences of siRNAs (double stranded) used are:
as §3, with “D128-500).” for “D128-500)”, “Relative survival is calculated with respect to absorbance of control (untreated cells) to determine the effect of transfection as well as combination treatment.” left out

[1] = test system: OVCAR3 ovarian cancer cells
Procedure: as §1, §2, §3, §4, §5
as §3, with “D128-500).” for “D128-500)”, “Relative survival is calculated with respect to absorbance of control (untreated cells) to determine the effect of transfection as well as combination treatment.” left out

[2] = test system: 8505C thyroid cancer cells
Procedure: Cells are cultured and maintained at 37° C. in a humidified atmosphere containing 5% CO2 as described above. […] After 12-18 hours (Day 1), cells are transfected with Scramble or MADD siRNA at 10 nM concentration. The sequences of siRNAs (double stranded) used are:
On Day 4, when cells are properly adhered and retained their shape in 96-well plates, drugs are added. All drugs are diluted in complete media on the same day prior to the addition to the cells. In untreated cells, media is replaced with complete media. Two hundred μl volume of media (with or without drugs) is used for the drug treatment assay. Plates are incubated 24 h, 48 h and 72 hours at 37° C. in humidified CO2 incubator.
as §3, with “MTT is dissolved in sterile DPBS at the concentration of 5 mg/ml and filtered through 0.45 μM syringe filter (Corning; Cat number: 431220).” left out
as §4, §2

[3] = Gemcitabine 8.2 nM, 48 hours post Gemcitabine treatment
[4] = Sorafinib 1.56 μM, 48 hours post Sorafinib treatment
[5] = TRAIL 100 ng/ml, 48 hours post TRAIL treatment
[6] = Gemcitabine 0.0125 μM, 72 hours post Gemcitabine treatment
[7] = Gemcitabine 0.1 μM, 48 hours post Gemcitabine treatment
[8] = Sorafinib 5 μM, 48 hours post Sorafinib treatment
[9] = 8505C thyroid cancer cells, TRAIL 6.25 ng/ml, 48 hours post TRAIL treatment
[10] = 8505C, Cisplatin 2.5 μM, 48 hours post Cisplatin treatment
[11] = 8508C thyroid cancer cells, TRAIL 6.25 ng/ml, 48 hours post TRAIL treatment

| Molecule | Observed % Cell death (H522 lung cancer cells; [3]) | Observed % Cell death (H522 lung cancer cells; [4]) | Observed % Cell death (H522 lung cancer cells; [5]) | Observed % Cell death [1, 6] | Observed % Cell death [1, 7] | Observed % Cell death [1, 8] | Net % cell death after accounting for Scrambled siRNA [2, 9] | Net % cell death after accounting for Scrambled siRNA [2, 10] | Observed % Cell death [2, 10] | Observed % Cell death [2, 11] | Net % cell death after accounting for Scrambled siRNA (H522 lung cancer cells; [3]) | Net % cell death after accounting for Scrambled siRNA (H522 lung cancer cells; [4]) | Net % cell death after accounting for Scrambled siRNA (H522 lung cancer cells; [5]) | Net % cell death after accounting for Scrambled siRNA [1, 6] | Net % cell death after accounting for Scrambled siRNA [1, 7] | Net % cell death after accounting for Scrambled siRNA [1, 8] |
| --- | --- | --- | --- | --- | --- | --- | --- | --- | --- | --- | --- | --- | --- | --- | --- | --- |
| MADD siRNA: siRNA targeting exon 13L of the MADD splice variant of the IG20 gene; SEQ ID NO: 4, 5′-GAUUGUCAUAGAUUCGCCGTT-3′ (chemistry not given here) | 37% | 37% | 37% | 23% | 19% | 19% | 39% and 49 − 10 = 39% | 39% and 49 − 10 = 39% | 49% | 49% |  |  |  |  |  |  |
| Scrambled siRNA: non-specific Scramble siRNA, negative control; SEQ ID NO: 5, 5′-UUGCUAAGCGUCGGUCAAUTT-3′ (chemistry not given here) | 30% | 30% | 30% | 26% | 17% | 17% | 10 − 10 = 0% | 10% | 10% | 10% | 30 − 30 = 0% | 30 − 30 = 0% | 30 − 30 = 0% | 26 − 26 = 0% | 17 − 17 = 0% | 17 − 17 = 0% |
| CNC(=O)c1cc(Oc2ccc(NC(=O)Nc3ccc(Cl)c(C(F)(F)F)c3)cc2)ccn1 [Sorafinib] |  | 0% |  |  |  | 17% |  |  |  |  |  | 0% |  |  |  | 17% |
| TRAIL: cytotoxic protein which induces apoptosis in tumor cells, but not in normal cells (protein, UniProt P50591 1-281, looked up) Tumor necrosis factor ligand …: MAMMEVQGGPSLGQTCVLIVIFTVLLQSLCVAVTYVYFTNELKQMQDKYSKSGIACFLKEDDSYWDPNDEESMNSPCWQVKWQLRQLVRKMILRTSEETISTVQEKQQNISPLVRERGPQRVAAHITGTRGRSNTLSSPNSKNEKALGRKINSWESSRSGHSFLSNLHLRNGELVIHEKGFYYIYSQTYFRFQEEIKENTKNDKQMVQYIYKYTSYPDPILLMKSARNSCWSKDAEYGLYSIYQGGIFELKENDRIFVSVTNEHLIDMDHEASFFGAFLVG |  |  | 0% |  |  |  | 6.56% and 7% |  |  | 7% |  |  | 0% |  |  |  |
